Experimental data reported in US20250320227A1, “MACROCYCLIC OREXIN RECEPTOR AGONISTS AND USES THEREOF” (Jazz Pharmaceuticals Ireland Limited, priority 2022, published 2025).

Biological target: T1, human recombinant OX2 (hOX2) receptors expressed in CHO cells (Homo sapiens, UniProt O43614)
T1 construct: host or cells: CHO cells (hOX2-CHO)
T1 sequence (O43614 1-444): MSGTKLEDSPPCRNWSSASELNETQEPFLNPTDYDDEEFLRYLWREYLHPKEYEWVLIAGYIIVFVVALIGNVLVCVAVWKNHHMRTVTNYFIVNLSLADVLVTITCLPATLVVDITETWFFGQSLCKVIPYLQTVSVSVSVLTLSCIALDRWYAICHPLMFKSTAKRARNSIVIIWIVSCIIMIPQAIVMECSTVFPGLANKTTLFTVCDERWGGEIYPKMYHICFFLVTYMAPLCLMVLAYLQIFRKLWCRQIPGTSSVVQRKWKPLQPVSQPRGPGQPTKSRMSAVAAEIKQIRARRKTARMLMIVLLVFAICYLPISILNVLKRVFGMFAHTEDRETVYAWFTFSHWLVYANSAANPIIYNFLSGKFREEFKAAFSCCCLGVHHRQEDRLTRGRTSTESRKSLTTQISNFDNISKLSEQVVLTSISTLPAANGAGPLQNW
Experiment: IP-1 accumulation assay (IP-One HTRF) in hOX2-CHO cells
Assay type: cell-based
Details: 60 min incubation at 37° C., mean of at least two independent experiments, read-out: EC50_OX2R Category
Procedure: The accumulation of Inositol-1 Monophosphate (IP-1) was measured using IP-One HTRF® Terbium cryptate based assay (Cisbio) in human recombinant OX1 (hOX1) and at OX2 (hOX2) receptors expressed in CHO cells (DiscoverX) according to the manufacturer's instructions for cells tested in suspension.
hOX1-CHO and hOX2-CHO cells were seeded into white 384-well plates at a density of 20,000 cells/well in Hank's Balanced Salt Solution (HBSS) containing 20 mM HEPES pH 7.4, 50 mM, LiCl and 0.1% and Bovine Serum Albumin (BSA).
Compounds of disclosure were tested in an 11 points concentration response curve (CRC) serially diluted in neat DMSO at 200 fold concentrations and added by Echo acoustic liquid handling (Labcyte) to the cells (0.5% DMSO final in the assay). After 60 min of incubation at 37° C. detection reagents, IP1-d2 tracer and anti-IP1-cryptate were diluted in lysis buffer according to the manufacturer's descriptions and added to the cells.
Following 60 min incubation at room temperature, time-resolved fluorescence (HTRF) was measured at 615 nm and 665 nm by Envision Multilabel reader (Perkin Elmer) and the HTRF ratio (A665/A615×10^4) was calculated.
The IP-1 accumulation response was expressed as percentage of the maximal OX-A response.
Curve fitting and EC50 estimations were carried out using a four-parameter logistic model using XLfit Software. Mean data of EC50 are calculated from at least two independent experiments performed in duplicates

Structure (SMILES) | EC50 [nM]
CC1(C)Oc2ccccc2[C@H]2CC[C@H](CC2)OCC2N(CCCC23COCC(=O)N3)C1=O (stereo partly drawn) [Example 36, Rel-(1′s,3S,16′R,19′s)-9′,9′-dimethyl-8′,18′-dioxa-11′-azaspiro[morpholine-3,15′-tetracyclo[17.2.2.0^2,70.0^11,16]tricosane]-2′(7′),3′,5′-triene-5,10′-dione] | 100 to 1000
O=C1COC[C@@]2(CCCN3C(=O)COc4ccc(F)c(F)c4[C@H]4CC[C@H](CC4)OC[C@H]32)N1 (single isomer, unassigned) [Example 43a] | < 100
C[C@@H]1CC2(COCC(=O)N2)C2CO[C@H]3CC[C@H](CC3)c3ccccc3OCCCC(=O)N21 (mixture of isomers) [Example 14, (1′s,14′R,20's)-14′-methyl-8′,19′-dioxa-13′-azaspiro[morpholine-3,16′-tetracyclo[18.2.2.0^2,70.0^13,17]tetracosane]-2′(7′),3′,5′-triene-5,12′-dione] | < 100
O=C1COCC2(CCCN3C(=O)COc4ncccc4[C@H]4CC[C@H](CC4)OCC32)N1 (stereo partly drawn) [Example 45, Rel-(1′s,3S,16′R,19′s)-8′,18′-dioxa-6′,11′-diazaspiro [morpholine-3,15′-tetracyclo[17.2.2. 0^2,^7.0^11,^16]tricosane]-2′(7′),3′,5′-triene-5,10′-dione] | < 100
O=C1CCOc2ccccc2[C@H]2CC[C@H](CC2)OCC2N1CCC21COCCN1 (mixture of isomers) [Example 9, Rel-(1′s,3S,16′R,19′s)-8′,18′-dioxa-12′-azaspiro[morpholine-3,15′-tetracyclo[17.2.2.0^2,70.0^12,16]tricosane]-2′,4′,6′-trien-11′-one] | > 10000
C[C@@H]1C[C@@]2(COCC(=O)N2)[C@@H]2CO[C@H]3CC[C@H](CC3)c3cccnc3OCC(=O)N12 (single isomer, unassigned) [Example 23a] | 100 to 1000
O=C1COC[C@@]2(CCCN3C(=O)COc4ccc(F)cc4[C@H]4CC[C@H](CC4)OC[C@H]32)N1 (single isomer, unassigned) [Example 41a] | < 100
O=C1COCC2(CCCN3C(=O)CCOc4cccnc4[C@H]4CC[C@H](CC4)OCC32)N1 (mixture of isomers) [Example 51, Rel-(1′s,3S,17′R,20′s)-8′,19′-dioxa-3′,12′-diazaspiro [morpholine-3,16′-tetracyclo[18.2.2. 0^2,^7.0^12,^17]tetracosane]-2′(7′),3′,5′-triene-5,11′-dione] | > 10000
O=C1COC[C@]2(CCCN3C(=O)COc4ccc(F)cc4[C@H]4CC[C@H](CC4)OC[C@@H]32)N1 (single isomer, unassigned) [Example 41b] | 1000 to 10000
O=C1COCC2(CCN3C(=O)CCCOc4ccccc4[C@H]4CC[C@H](CC4)OCC32)N1 (mixture of isomers) [Example 2, rel-(1′s,3S, 17′R,20′s)-8′,19′-dioxa-13′-azaspiro[morpholine-3, 16′-tetracyclo [18.2.2.0^2,70.0^13,17]tetracosane]-2′(7′),3′,5′-triene-5,12′-dione] | 1000 to 10000
O=C1COC[C@@]2(CCCN3C(=O)C4(CC4)COc4cccc(F)c4[C@H]4CC[C@H](CC4)OC[C@H]32)N1 (single isomer, unassigned) [Example 72b, (1′s,16′S,17′R,20′s)-3′-fluorodispiro[cyclopropane-1,10′-[8,19]dioxa-[12]azatetracyclo [18.2.2.0^2,^7.0^12,^17]tetracosane-16′,3″- morpholine]-2′,4′,6′-triene-5″,11′-dione] | < 100
C[C@@H]1C[C@]2(COCC(=O)N2)[C@H]2CO[C@H]3CC[C@H](CC3)c3cccc(F)c3OCCC(=O)N12 (single isomer, unassigned) [Example 24b] | 100 to 1000
CC1CC2(COCC(=O)N2)C2COC3CCC(CC3)c3ccncc3OCCC(=O)N12 (single isomer, unassigned) [Example 74] | < 100
O=C1COC[C@]2(CCCN3C(=O)CCOc4c(F)cccc4[C@H]4CC[C@H](CC4)OC[C@@H]32)N1 (single isomer, unassigned) [Example 48b] | < 100
Cc1ccnc2c1C1CCC(CC1)OCC1N(CCCC13COCC(=O)N3)C(=O)CO2 [Example 77a, (1′s,3S,16′R,19′s)-3′-methyl-8′,18′-dioxa-6′,11′-diazaspiro[morpholine-3,15′-tetracyclo[17.2.2.0^2,70.0^11,16]tricosane]-2′,4′,6′-triene-5,10′-dione] | < 100
O=C1CCOc2ccccc2[C@H]2CC[C@H](CC2)OCC2N1CCCC21CCCS(=O)(=O)N1 (stereo partly drawn) [Example 60, Rel-(1s, 16R,17R,20s)-8,19-dioxa-12-azaspiro[tetracyclo[18.2.2.0^2,70.0^12,17]tetracosane-16,3′-[1λ^6,2]thiazinane]-2 (7),3,5-triene-1′,1′,11-trione] | 100 to 1000
O=C1COCC2(CCCN3C(=O)OCCOc4cccc(c4)[C@H]4CC[C@H](CC4)OCC32)N1 (mixture of isomers) [Example 53, Rel-(1′s,3S,17′R,20's)-7′,10′,19′-trioxa-12′-azaspiro[morpholine-3,16′-tetracyclo[18.2.2.1^2,60.0^12,17]pentacosane]-2′(25′),3′,5′-triene-5,11′-dione] | < 100
C[C@@H]1C[C@]2(COCC(=O)N2)[C@H]2CO[C@H]3CC[C@H](CC3)c3ccc(F)cc3OCC(=O)N12 [Example 19b, (1′s,3R,12′R,15′S, 18′s)-5′-fluoro-12′-methyl-8′,17′-dioxa-11′-azaspiro[morpholine-3,14′-tetracyclo [16.2.2.0^2,^7.0^11,^15]docosane]-2′,4′,6′-triene-5,10′-dione] | > 10000
O=C1COc2ccccc2[C@H]2CC[C@H](CC2)OCC2N1CCCC21CCCS(=O)(=O)N1 (mixture of isomers) [Example 59, Rel-(1s, 15R,16R,19s)-8,18-dioxa-11-azaspiro[tetracyclo[17.2.2.0^2,70.0^11,16]tricosane-15,3′-[1λ^6,2]thiazinane]-2 (7),3,5-triene-1′,1′,10-trione] | < 100
O=C1CCCC2(CCCN3C(=O)COc4ccccc4[C@H]4CC[C@H](CC4)OCC32)N1 (mixture of isomers) [Example 58, Rel-(1′s,2S,16′R,19′s)-8′,18′-dioxa-11′-azaspiro[piperidine-2,15′-tetracyclo-[17.2.2.0^2,70.0^11,16]tricosane]-2′(7′),3′,5′-triene-6,10′-dione] | < 100
O=C1COC[C@]2(CCCN3C(=O)COc4nccc(F)c4[C@H]4CC[C@H](CC4)OC[C@@H]32)N1 (single isomer, unassigned) [Example 46b] | 1000 to 10000
O=C1COC[C@]2(CCCN3C(=O)COc4cc(F)cc(F)c4[C@H]4CC[C@H](CC4)OC[C@@H]32)N1 (single isomer, unassigned) [Example 42b] | 100 to 1000
O=C1COC[C@@]2(CCCN3C(=O)COc4cccc(F)c4[C@H]4CC[C@H](CC4)OC[C@H]32)N1 (single isomer, unassigned) [Example 40a] | < 100
O=C1COCC2(CCCN3C(=S)COc4ccccc4[C@H]4CC[C@H](CC4)OCC32)N1 (stereo partly drawn) [Example 66, Rel-(1′s,3S,16′R,19′s)-10′-sulfanylidene-8′,18′-dioxa-11′-azaspiro[morpholine-3,15′-tetracyclo[17.2.2.0^2,70.0^11,16]tricosane]-2′(7′),3′,5′-trien-5-one] | 1000 to 10000
O=C1COC[C@@]2(CCCN3C(=O)CCOc4c(F)cc(F)cc4[C@H]4CC[C@H](CC4)OC[C@H]32)N1 (single isomer, unassigned) [Example 50a] | < 100
O=C1NC2(CCCN3C(=O)COc4ccccc4[C@H]4CC[C@H](CC4)OCC32)CCO1 (mixture of isomers) [Example 57, Rel-(1′s,4R,16′R,19′s)-8′,18′-dioxa-11′-azaspiro[1,3-oxazinane-4,15′-tetracyclo[17.2.2.0^2,70.0^11,16]tricosane]-2′(7′),3′,5′-triene-2,10′-dione] | < 100
O=C1COCC2(CCCN3C(=O)COCc4ccccc4[C@H]4CC[C@H](CC4)OCC32)N1 (stereo partly drawn) [Example 55, Rel-(1′s,3S,17′R,20's)-9′,19′-dioxa-12′-azaspiro[morpholine-3,16′-tetracyclo[18.2.2.0^2,70.0^12,17]tetracosane]-2′(7′),3′,5′-triene-5,11′-dione] | 1000 to 10000
O=C1COCC2(CCCN3C(=O)C4(CC4)COc4ccccc4[C@H]4CC[C@H](CC4)OCC32)N1 (stereo partly drawn) [Example 37, Rel-(1′s,16′S,17′R,20's)-dispiro[cyclopropane-1,10′-[8,19]dioxa-[12]azatetracyclo[18.2.2.0^2,70.0^12,17]tetracosane-16′,3″-morpholine]-2′(7′),3′,5′-triene-5″,11′-dione] | < 100
